Laboratory results from patent US20230085307A1, “PYRIDAZINONE COMPOUND AND HERBICIDE” (NISSAN CHEMICAL CORPORATION, priority 2019, published 2023).

Tested on: chickweed
Assay: Test Example 5: herbicidal effect by foliage application, plastic box (Table 20, symbol P)
Assay type: in vivo, common chickweed (Stellaria media)
Settings: amount of applied herbicide 320 g/ha; foliage application after 14-day growth; evaluated three weeks after application
In short: (§1)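 Post-emergence foliar test in sterilized diluvial soil. Compound applied as water-diluted emulsion at a predetermined rate to 14-day-old plants; evaluation at three weeks.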

Compound | Herbicidal effect by foliage application, P: chickweed
CCCC(=O)Oc1c(C)nn(C)c(=O)c1-c1c(-c2ccc(OC)cc2)sc2cc(Cl)c(Cl)cc12 [5-044] | 5 (Herbicidal rate of 90% or more (almost completely withered))
Cc1nn(C)c(=O)c(-c2c(-c3ccc(C(F)(F)F)cc3)sc3cc(Cl)c(Cl)cc23)c1O [5-047] | 0 (Herbicidal rate of 5% or less (almost no effect))

Tested on: redroot pigweed
Assay: Test Example 5: herbicidal effect by foliage application, plastic box (Table 20, symbol N)
Assay type: in vivo, redroot pigweed (Amaranthus retroflexus)
Settings: amount of applied herbicide 320 g/ha; foliage application after 14-day growth; evaluated three weeks after application
In short: as §1

Compound | Herbicidal effect by foliage application, N: redroot pigweed
CCCC(=O)Oc1c(C)nn(C)c(=O)c1-c1c(-c2ccc(OC)cc2)sc2cc(Cl)c(Cl)cc12 [5-044] | 0 (Herbicidal rate of 5% or less (almost no effect))
Cc1nn(C)c(=O)c(-c2c(-c3ccc(C(F)(F)F)cc3)sc3cc(Cl)c(Cl)cc23)c1O [5-047] | 3 (Herbicidal rate of 40% or more and less than 70%)

Tested on: southern crabgrass
Assay: Test Example 5: herbicidal effect by foliage application, plastic box (Table 20, symbol F)
Assay type: in vivo, southern crabgrass (Digitaria ciliaris)
Settings: amount of applied herbicide 320 g/ha; foliage application after 14-day growth; evaluated three weeks after application
In short: as §1

Compound | Herbicidal effect by foliage application, F: southern crabgrass
CCCC(=O)Oc1c(C)nn(C)c(=O)c1-c1c(-c2ccc(OC)cc2)sc2cc(Cl)c(Cl)cc12 [5-044] | 0 (Herbicidal rate of 5% or less (almost no effect))
Cc1nn(C)c(=O)c(-c2c(-c3ccc(C(F)(F)F)cc3)sc3cc(Cl)c(Cl)cc23)c1O [5-047] | 0 (Herbicidal rate of 5% or less (almost no effect))

Tested on: windgrass
Assay: Test Example 5: herbicidal effect by foliage application, plastic box (Table 20, symbol L)
Assay type: in vivo, windgrass (Apera spica-venti)
Settings: amount of applied herbicide 320 g/ha; foliage application after 14-day growth; evaluated three weeks after application
In short: as §1

Compound | Herbicidal effect by foliage application, L: windgrass
CCCC(=O)Oc1c(C)nn(C)c(=O)c1-c1c(-c2ccc(OC)cc2)sc2cc(Cl)c(Cl)cc12 [5-044] | 0 (Herbicidal rate of 5% or less (almost no effect))
Cc1nn(C)c(=O)c(-c2c(-c3ccc(C(F)(F)F)cc3)sc3cc(Cl)c(Cl)cc23)c1O [5-047] | 2 (Herbicidal rate of 20% or more and less than 40%)

Tested on: rice flat sedge
Assay: Test Example 3: herbicidal effect by foliage application, Wagner pot (Table 18, symbol E)
Assay type: in vivo, rice flat sedge (Cyperus iria)
Settings: 320 g/ha
In short: (§2)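 Plants were sown in alluvial soil held under 0.1–0.5 cm standing water and grown 14 days in a greenhouse at 25–30 °C. An emulsifiable formulation, water-diluted to the set dose, was then sprayed onto the foliage, and effects were scored three weeks later using previously defined criteria.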

Compound | herbicidal effect on rice flat sedge (E)
CCCC(=O)Oc1c(C)nn(C)c(=O)c1-c1c(-c2ccc(OC)cc2)sc2cc(Cl)c(Cl)cc12 [5-044] | 3 (Herbicidal rate of 40% or more and less than 70%)
Cc1nn(C)c(=O)c(-c2c(-c3ccc(C(F)(F)F)cc3)sc3cc(Cl)c(Cl)cc23)c1O [5-047] | 0 (Herbicidal rate of 5% or less (almost no effect))

Tested on: persian speedwell
Assay: Test Example 5: herbicidal effect by foliage application, plastic box (Table 20, symbol R)
Assay type: in vivo, Persian speedwell (Veronica persica)
Settings: amount of applied herbicide 320 g/ha; foliage application after 14-day growth; evaluated three weeks after application
In short: as §1

Compound | Herbicidal effect by foliage application, R: persian speedwell
CCCC(=O)Oc1c(C)nn(C)c(=O)c1-c1c(-c2ccc(OC)cc2)sc2cc(Cl)c(Cl)cc12 [5-044] | 4 (Herbicidal rate of 70% or more and less than 90%)
Cc1nn(C)c(=O)c(-c2c(-c3ccc(C(F)(F)F)cc3)sc3cc(Cl)c(Cl)cc23)c1O [5-047] | 0 (Herbicidal rate of 5% or less (almost no effect))

Tested on: wild oat
Assay: Test Example 5: herbicidal effect by foliage application, plastic box (Table 20, symbol I)
Assay type: in vivo, wild oat (Avena fatua)
Settings: amount of applied herbicide 320 g/ha; foliage application after 14-day growth; evaluated three weeks after application
In short: as §1

Compound | Herbicidal effect by foliage application, I: wild oat
CCCC(=O)Oc1c(C)nn(C)c(=O)c1-c1c(-c2ccc(OC)cc2)sc2cc(Cl)c(Cl)cc12 [5-044] | 0 (Herbicidal rate of 5% or less (almost no effect))
Cc1nn(C)c(=O)c(-c2c(-c3ccc(C(F)(F)F)cc3)sc3cc(Cl)c(Cl)cc23)c1O [5-047] | 0 (Herbicidal rate of 5% or less (almost no effect))

Tested on: barnyard grass
Assay: Test Example 5: herbicidal effect by foliage application, plastic box (Table 20, symbol H)
Assay type: in vivo, barnyard grass (Echinochloa crus-galli)
Settings: amount of applied herbicide 320 g/ha; foliage application after 14-day growth; evaluated three weeks after application
In short: as §1

Compound | Herbicidal effect by foliage application, H: barnyard grass
CCCC(=O)Oc1c(C)nn(C)c(=O)c1-c1c(-c2ccc(OC)cc2)sc2cc(Cl)c(Cl)cc12 [5-044] | 0 (Herbicidal rate of 5% or less (almost no effect))
Cc1nn(C)c(=O)c(-c2c(-c3ccc(C(F)(F)F)cc3)sc3cc(Cl)c(Cl)cc23)c1O [5-047] | 0 (Herbicidal rate of 5% or less (almost no effect))

Tested on: blackgrass
Assay: Test Example 5: herbicidal effect by foliage application, plastic box (Table 20, symbol J)
Assay type: in vivo, blackgrass (Alopecurus myosuroides)
Settings: amount of applied herbicide 320 g/ha; foliage application after 14-day growth; evaluated three weeks after application
In short: as §1

Compound | Herbicidal effect by foliage application, J: blackgrass
CCCC(=O)Oc1c(C)nn(C)c(=O)c1-c1c(-c2ccc(OC)cc2)sc2cc(Cl)c(Cl)cc12 [5-044] | 0 (Herbicidal rate of 5% or less (almost no effect))
Cc1nn(C)c(=O)c(-c2c(-c3ccc(C(F)(F)F)cc3)sc3cc(Cl)c(Cl)cc23)c1O [5-047] | 0 (Herbicidal rate of 5% or less (almost no effect))

Tested on: lambsquarters
Assay: Test Example 5: herbicidal effect by foliage application, plastic box (Table 20, symbol O)
Assay type: in vivo, lambsquarters (Chenopodium album)
Settings: amount of applied herbicide 320 g/ha; foliage application after 14-day growth; evaluated three weeks after application
In short: as §1

Compound | Herbicidal effect by foliage application, O: lambsquarters
CCCC(=O)Oc1c(C)nn(C)c(=O)c1-c1c(-c2ccc(OC)cc2)sc2cc(Cl)c(Cl)cc12 [5-044] | 3 (Herbicidal rate of 40% or more and less than 70%)
Cc1nn(C)c(=O)c(-c2c(-c3ccc(C(F)(F)F)cc3)sc3cc(Cl)c(Cl)cc23)c1O [5-047] | 1 (Herbicidal rate of 5% or more and less than 20%)

Tested on: velvetleaf
Assay: Test Example 5: herbicidal effect by foliage application, plastic box (Table 20, symbol M)
Assay type: in vivo, velvetleaf (Abutilon theophrasti)
Settings: amount of applied herbicide 320 g/ha; foliage application after 14-day growth; evaluated three weeks after application
In short: as §1

Compound | Herbicidal effect by foliage application, M: velvetleaf
CCCC(=O)Oc1c(C)nn(C)c(=O)c1-c1c(-c2ccc(OC)cc2)sc2cc(Cl)c(Cl)cc12 [5-044] | 1 (Herbicidal rate of 5% or more and less than 20%)
Cc1nn(C)c(=O)c(-c2c(-c3ccc(C(F)(F)F)cc3)sc3cc(Cl)c(Cl)cc23)c1O [5-047] | 0 (Herbicidal rate of 5% or less (almost no effect))

Tested on: Italian ryegrass
Assay: Test Example 5: herbicidal effect by foliage application, plastic box (Table 20, symbol K)
Assay type: in vivo, Italian ryegrass (Lolium multiflorum)
Settings: amount of applied herbicide 320 g/ha; foliage application after 14-day growth; evaluated three weeks after application
In short: as §1

Compound | Herbicidal effect by foliage application, K: Italian ryegrass
CCCC(=O)Oc1c(C)nn(C)c(=O)c1-c1c(-c2ccc(OC)cc2)sc2cc(Cl)c(Cl)cc12 [5-044] | 0 (Herbicidal rate of 5% or less (almost no effect))
Cc1nn(C)c(=O)c(-c2c(-c3ccc(C(F)(F)F)cc3)sc3cc(Cl)c(Cl)cc23)c1O [5-047] | 0 (Herbicidal rate of 5% or less (almost no effect))

Tested on: green foxtail
Assay: Test Example 5: herbicidal effect by foliage application, plastic box (Table 20, symbol G)
Assay type: in vivo, green foxtail (Setaria viridis)
Settings: amount of applied herbicide 320 g/ha; foliage application after 14-day growth; evaluated three weeks after application
In short: as §1

Compound | Herbicidal effect by foliage application, G: green foxtail
CCCC(=O)Oc1c(C)nn(C)c(=O)c1-c1c(-c2ccc(OC)cc2)sc2cc(Cl)c(Cl)cc12 [5-044] | 0 (Herbicidal rate of 5% or less (almost no effect))
Cc1nn(C)c(=O)c(-c2c(-c3ccc(C(F)(F)F)cc3)sc3cc(Cl)c(Cl)cc23)c1O [5-047] | 0 (Herbicidal rate of 5% or less (almost no effect))

Tested on: Chinese sprangletop
Assay: Test Example 3: herbicidal effect by foliage application, Wagner pot (Table 18, symbol D)
Assay type: in vivo, chinese sprangletop (Leptochloa chinensis)
Settings: 320 g/ha
In short: as §2

Compound | herbicidal effect on Chinese sprangletop (D)
CCCC(=O)Oc1c(C)nn(C)c(=O)c1-c1c(-c2ccc(OC)cc2)sc2cc(Cl)c(Cl)cc12 [5-044] | 3 (Herbicidal rate of 40% or more and less than 70%)
Cc1nn(C)c(=O)c(-c2c(-c3ccc(C(F)(F)F)cc3)sc3cc(Cl)c(Cl)cc23)c1O [5-047] | 0 (Herbicidal rate of 5% or less (almost no effect))

Tested on: barnyard grass
Assay: Test Example 3: herbicidal effect by foliage application, Wagner pot (Table 18, symbol H)
Assay type: in vivo, barnyard grass (Echinochloa crus-galli)
Settings: 320 g/ha
In short: as §2

Compound | herbicidal effect on barnyard grass (H)
CCCC(=O)Oc1c(C)nn(C)c(=O)c1-c1c(-c2ccc(OC)cc2)sc2cc(Cl)c(Cl)cc12 [5-044] | 3 (Herbicidal rate of 40% or more and less than 70%)
Cc1nn(C)c(=O)c(-c2c(-c3ccc(C(F)(F)F)cc3)sc3cc(Cl)c(Cl)cc23)c1O [5-047] | 3 (Herbicidal rate of 40% or more and less than 70%)
